According to patent US7777047B2, “Indole compound” (Takeda Pharmaceutical Company Limited, priority 2006, dated 2010):

melting point [°C]	Structure (SMILES)
166 to 167	COc1ccccc1S(=O)(=O)N(C)c1cccc2cc(C3=NCC(CC(=O)N4CCC(O)CC4)S3)[nH]c12 (stereo not drawn) [Example 311, N-(2-{5-[2-(4-hydroxypiperidino)-2-oxoethyl]-4,5-dihydro-1,3-thiazol-2-yl}-1H-indol-7-yl)-2-methoxy-N-methylbenzenesulfonamide]
186 to 187	CN(c1cc(OC(F)(F)F)cc2cc(C3=NCC(CC(N)=O)S3)[nH]c12)S(=O)(=O)c1cccs1 (stereo not drawn) [Example 384, 2-{2-[7-[methyl(2-thienylsulfonyl)amino]-5-(trifluoromethoxy)-1H-indol-2-yl]-4,5-dihydro-1,3-thiazol-5-yl}acetamide]
174 to 175	CN(c1cccc2cc(C3=NCC(CCO)S3)[nH]c12)S(=O)(=O)c1cccs1 (stereo not drawn) [Example 285, N-{2-[5-(2-hydroxyethyl)-4,5-dihydro-1,3-thiazol-2-yl]-1H-indol-7-yl}-N-methylthiophene-2-sulfonamide]
107 to 110	CN(c1cc(OCCCS(C)(=O)=O)cc2cc(C3=NCC(CN4CC[S+]([O-])CC4)S3)[nH]c12)S(=O)(=O)c1ccccn1 (stereo not drawn) [Example 323, N-methyl-N-(5-[3-(methylsulfonyl)propoxy]-2-{5-[(1-oxidothiomorpholino)methyl]-4,5-dihydro-1,3-thiazol-2-yl}-1H-indol-7-yl)pyridine-2-sulfonamide]
123 to 124	CC(=O)CC1CN=C(c2cc3cccc(N(C)S(=O)(=O)c4cccs4)c3[nH]2)S1 (stereo not drawn) [Example 300, N-methyl-N-{2-[5-(2-oxopropyl)-4,5-dihydro-1,3-thiazol-2-yl]-1H-indol-7-yl}thiophene-2-sulfonamide]
149 to 150	CN1CCC(CC2CN=C(c3cc4cccc(N(C)S(=O)(=O)c5cccs5)c4[nH]3)S2)=N1 (stereo not drawn) [Example 302, N-methyl-N-(2-{5-[(1-methyl-4,5-dihydro-1H-pyrazol-3-yl)methyl]-4,5-dihydro-1,3-thiazol-2-yl}-1H-indol-7-yl)thiophene-2-sulfonamide]
208 to 209	COc1ccccc1S(=O)(=O)N(C)c1cccc2cc(C3=NCC(CC(=O)Nc4nnc[nH]4)S3)[nH]c12 (stereo not drawn) [Example 310, 2-(2-{7-[[(2-methoxyphenyl)sulfonyl](methyl)amino]-1H-indol-2-yl}-4,5-dihydro-1,3-thiazol-5-yl)-N-4H-1,2,4-triazol-3-ylacetamide]
109 to 110	CCOC(=O)CC1CN=C(c2cc3c(C)ccc(N(C)S(=O)(=O)c4cccs4)c3[nH]2)S1 (stereo not drawn) [Example 290, ethyl (2-{4-methyl-7-[methyl(2-thienylsulfonyl)amino]-1H-indol-2-yl}-4,5-dihydro-1,3-thiazol-5-yl)acetate]
193 to 194	CN(c1cccc2cc(C3=NCC(CN4CC[S+]([O-])CC4)S3)[nH]c12)S(=O)(=O)c1ccccn1 (stereo not drawn) [Example 304, N-methyl-N-(2-{5-[(1-oxidothiomorpholino)methyl]-4,5-dihydro-1,3-thiazol-2-yl}-1H-indol-7-yl)pyridine-2-sulfonamide]
153 to 154	CN(c1cccc2cc(C3=NCC(CCO)S3)[nH]c12)S(=O)(=O)c1ccccc1C(F)(F)F (stereo not drawn) [Example 315, N-{2-[5-(2-hydroxyethyl)-4,5-dihydro-1,3-thiazol-2-yl]-1H-indol-7-yl}-N-methyl-2-(trifluoromethyl)benzenesulfonamide]
168 to 169	Cc1ccc(N(C)S(=O)(=O)c2cccs2)c2[nH]c(C3=NCC(CCO)S3)cc12 (stereo not drawn) [Example 291, N-{2-[5-(2-hydroxyethyl)-4,5-dihydro-1,3-thiazol-2-yl]-4-methyl-1H-indol-7-yl}-N-methylthiophene-2-sulfonamide]
190 to 191	Cc1ccc(N(C)S(=O)(=O)c2cccs2)c2[nH]c(-c3ncc(CN4CCC(O)C4)s3)cc12 (stereo not drawn) [Example 251, N-(2-{5-[(3-hydroxypyrrolidin-1-yl)methyl]-1,3-thiazol-2-yl}-4-methyl-1H-indol-7-yl)-N-methylthiophene-2-sulfonamide]
